According to article PMC6905855, “Agonist-specific voltage-dependent gating of lysosomal two-pore Na^+ channels” (eLife, 2019):
“And” between values parts separate entries of the source, which are not always exact repeats. Equal values may be shown once. Read-outs that look alike come from different tables or passages of the source.

How the values were obtained:
[1] = target: T1, surface-expressing mutant TPC2 channel (TPC2^LL/AA) in HEK293 cells (Homo sapiens, UniProt Q8NHX9, L11A/L12A); test: Whole-cell recordings of ITPC2-LL/AA; type: cell-based; conditions: for activation of whole-cell ITPC2-LL/AA (in words): bath application, symmetric Na^+, 100 µM where stated; for current density: whole cell recordings, individual recordings; for EC50: whole-cell recordings at −140 mV, TPC2^LL/AA-transfected HEK293 cells
T1 construct: expressed in transfected cells; host or cells: HEK293
T1 sequence (Q8NHX9 whole entry L11A/L12A): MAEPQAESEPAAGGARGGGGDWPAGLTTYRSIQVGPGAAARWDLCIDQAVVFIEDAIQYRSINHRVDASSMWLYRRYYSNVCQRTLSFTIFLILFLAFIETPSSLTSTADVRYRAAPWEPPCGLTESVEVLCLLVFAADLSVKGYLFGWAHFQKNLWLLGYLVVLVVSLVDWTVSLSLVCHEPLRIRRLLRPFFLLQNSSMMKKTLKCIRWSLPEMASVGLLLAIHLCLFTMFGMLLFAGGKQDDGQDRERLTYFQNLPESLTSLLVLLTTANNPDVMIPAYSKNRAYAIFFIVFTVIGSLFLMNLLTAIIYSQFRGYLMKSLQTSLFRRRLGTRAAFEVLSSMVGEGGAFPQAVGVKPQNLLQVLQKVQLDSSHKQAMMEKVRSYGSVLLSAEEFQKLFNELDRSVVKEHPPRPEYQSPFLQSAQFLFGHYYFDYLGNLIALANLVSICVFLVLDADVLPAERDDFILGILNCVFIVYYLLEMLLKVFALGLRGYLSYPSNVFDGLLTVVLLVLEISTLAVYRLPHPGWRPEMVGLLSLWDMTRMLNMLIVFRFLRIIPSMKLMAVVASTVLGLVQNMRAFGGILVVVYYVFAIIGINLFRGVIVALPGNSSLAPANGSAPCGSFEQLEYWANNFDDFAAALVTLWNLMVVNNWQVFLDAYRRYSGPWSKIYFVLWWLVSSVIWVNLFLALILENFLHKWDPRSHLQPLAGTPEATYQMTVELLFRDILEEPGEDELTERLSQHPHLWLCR
Text: We therefore characterized the responses of TPC2 channels to TCAs in detail using electrophysiological methods. We first performed whole-cell recordings in HEK293 cells that were transfected with surface-expressed TPC2 mutant channels (TPC2-L^11L^12-AA; abbreviated as TPC2^LL/AA hereafter).
(§1) All TPC1 and TPC2 mutants were generated with a site-directed mutagenesis kit (Qiagen) using EGFP- human TPC1 and TPC2 as the templates. All constructs were confirmed by DNA sequencing.
Cells were transfected with Lipofectamine 2000 (Invitrogen). After culture media were refreshed 18–24 hr post-transfection, cells were used for the electrophysiological assays 24–36 hr post-transfection.
All bath solutions were applied via a perfusion system that allowed complete solution exchange within a few seconds. […] Whole-cell currents were digitized at 10 kHz and filtered at 2 kHz.

hTPC2 = target: T2, hTPC2 (Homo sapiens, UniProt Q8NHX9); test: Whole-endolysosome recordings of ITPC2; type: biochemical; set-up: Whole endo-lysosomal TPC2 current activated by LyNa-VAs, Test 3 / Whole endo-lysosomal TPC2 current activated by LyNa-VAs, mean: unit not given here; conditions: for Whole endo-lysosomal TPC2 current activated by LyNa-VAs, Test 1 / Whole endo-lysosomal TPC2 current activated by LyNa-VAs, Test 2 / Whole endo-lysosomal TPC2 current activated by LyNa-VAs, Test 3 / Whole endo-lysosomal TPC2 current activated by LyNa-VAs, mean: 100uM; for Whole endo-lysosomal TPC2 current activated by LyNa-VAs, Test 1 / Whole endo-lysosomal TPC2 current activated by LyNa-VAs, Test 2 / Whole endo-lysosomal TPC2 current activated by LyNa-VAs, Test 3: individual recording; for Whole endo-lysosomal TPC2 current activated by LyNa-VAs, mean: mean of n tests; for ITPC2: whole endolysosome recordings with 100 µM of LyNa-VAs at −120 mV
T2 construct: expressed in transfected cells; host or cells: Cos1 and HEK293
T2 sequence (Q8NHX9 whole entry): as the sequence (Q8NHX9 whole entry L11A/L12A) above, with A11L, A12L counted along it

hTPC1 = target: T3, hTPC1 (Homo sapiens, UniProt Q9ULQ1); test: Whole-endolysosome recordings of ITPC1; type: biochemical
T3 construct: expressed in transfected cells; host or cells: Cos1
Protocol: It was therefore of interest to explore whether TCAs/LyNa-VAs could also act on TPC1. To investigate this, we used two different voltage paradigms. […] Second, we used a tail current paradigm to measure the amplitude of the peak inward current at −120 mV following prolonged steps to various potentials (Figure 4E).
Figure 4. […] HP = 0 mV. […] Dotted lines in A indicate where the currents were measured. […] Data are presented as Mean ± S.E.M (n = 3 patches). […] (G) Normalized I-V plots of basal voltage-dependent currents in WT TPC1- and TPC1^R540I-transfected cells. […] Figure 4—source data 1. […] Figure 4—figure supplement 1. […] (A) A voltage protocol that elicited ITPC1 tail currents as shown in Figure 4E (from −140 to 100 mV with a ∆V = 20 mV, 1 s with a 10 s inter-step interval). Arrows indicate where tail currents were measured. (B) A voltage protocol that elicited ITPC1 tail currents as shown in C. […] HP = 0 mV. […] (A) Basal whole-endolysosome ITPC1 (left) or ITPC1-R540I (right) was elicited by voltage steps (−140 to +100 mV with ΔV = 20 mV) in the absence of PI(3,5)P2 in TPC1-transfected Cos1 cells ([She et al., 2019]). Tail currents were elicited at −120 mV. (B) The effects of PI(3,5)P2 (0.3 µM) on ITPC1 (left) and ITPC1-R540I (right) step currents. […] A preconditioning voltage (+80 mV, 0.1 s) was applied before voltage steps starting from −140 to 100 mV (0.5 s, ∆V = 20 mV).
as §1
Whole-endolysosome recordings were performed on manually isolated enlarged endolysosomes ([Wang et al., 2012]). In brief, a patch pipette was pressed against a cell and quickly pulled away to slice the cell membrane. Enlarged endolysosomes were released into a dish and identified by monitoring EGFP-TPC1/2 or the mCherry-TPC1/2 fluorescence. After formation of a gigaseal between the patch pipette and the enlarged endolysosome, capacitance transients were compensated. Voltage steps of several hundred mVs with millisecond duration were then applied to break into the vacuolar membrane. The whole-endolysosome configuration was verified by the re-appearance of capacitance transients after break-in.
Data were collected using an Axopatch 200A patch clamp amplifier, Digidata 1440, and pClamp 10.2 software (Axon Instruments). Whole-endolysosome currents were digitized at 10 kHz and filtered at 2 kHz. All experiments were conducted at room temperature (21–23°C), and all recordings were analyzed with pClamp 10.2, and Origin 8.0 (OriginLab, Northampton, MA). The permeability to cations (relative to PNa) was estimated based on following equations ([Lewis, 1979]) and Erev measurement under bi-ionic conditions:(1) PX/PNa=γNa/γX{[Na^+]Luminal/[X^+]Cytoplasmic}{exp([…])} (2) PCa/PNa=γNa/γCa{[Na^+]Cytoplasmic/[4[Ca^2+]Luminal}{exp(ErevF/RT)}{1+exp(ErevF/RT)} where R, T, F, Erev, and γ are, respectively, the gas constant, absolute temperature, Faraday constant, reversal potential, and activity coefficient. The liquid junction potentials were measured and corrected as described ([Neher, 1992]).

SMILES | activation of whole-cell ITPC2-LL/AA (in words) [1] | current density ([1]; 5 µM) | ITPC2 (hTPC2) | EC50 ([1]; read-out: EC50) [µM] | current density ([1]; 10 µM) | current density ([1]; 20 µM) | current density ([1]; 50 µM) | current density ([1]; 100 µM) | current density ([1]; 200 µM) | current density ([1]; 400 µM) | other results
NC(=O)N1c2ccccc2C=Cc2ccccc21 [Carbamazepine] | no significant activation | 8.018 pA/pF and 9.073 pA/pF and 6.645 pA/pF | No activation |  | 8.227 pA/pF and 9.227 pA/pF and 5.436 pA/pF | 8.573 pA/pF and 9.164 pA/pF and 6.418 pA/pF | 8.8 pA/pF and 8.755 pA/pF and 6.073 pA/pF | 7.691 pA/pF and 8.973 pA/pF and 5.518 pA/pF | 7.464 pA/pF and 9.855 pA/pF and 6.164 pA/pF | 8.109 pA/pF and 8.755 pA/pF and 7.1 pA/pF | activation of whole-cell ITPC2-LL/AA (in words) ([1]; listed as carbamazepine): not by carbamazepine; EC50 [1]: No activation; Whole endo-lysosomal TPC2 current activated by LyNa-VAs, Test 1 (hTPC2): -17; Whole endo-lysosomal TPC2 current activated by LyNa-VAs, Test 2 (hTPC2): 9.3; Whole endo-lysosomal TPC2 current activated by LyNa-VAs, Test 3 (hTPC2): 23.1; Whole endo-lysosomal TPC2 current activated by LyNa-VAs, mean (hTPC2): 5.1
CNCCC=C1c2ccccc2CCc2ccccc21 [LyNa-VA1.5, Nortriptyline] |  |  | 1916 ± 361 pA | 52 ± 10 | 7.1 pA/pF and 35.8727 pA/pF and 7.336 pA/pF and 16.5636 pA/pF | 6.773 pA/pF and 73.7727 pA/pF and 24.3182 pA/pF | 14.0091 pA/pF and 121.209 pA/pF and 89.9 pA/pF | 57.6545 pA/pF and 164.355 pA/pF and 160.345 pA/pF and 75.7909 pA/pF | 154.282 pA/pF and 191.036 pA/pF and 204.236 pA/pF and 114.582 pA/pF | 180.164 pA/pF | 
c1ccc2c(c1)Nc1ccccc1S2 [Phenothiazine] | no significant activation |  | No activation |  | 10.2273 pA/pF and 10.0273 pA/pF and 9.7 pA/pF | 11.0091 pA/pF and 7.509 pA/pF and 8.936 pA/pF | 10.7545 pA/pF and 9.7 pA/pF and 10.2182 pA/pF | 9.9 pA/pF and 8.064 pA/pF and 9.882 pA/pF | 10.0545 pA/pF and 9.218 pA/pF and 9.555 pA/pF |  | EC50 [1]: No activation; Whole endo-lysosomal TPC2 current activated by LyNa-VAs, Test 1 (hTPC2): 10.3; Whole endo-lysosomal TPC2 current activated by LyNa-VAs, Test 2 (hTPC2): -2.6; Whole endo-lysosomal TPC2 current activated by LyNa-VAs, Test 3 (hTPC2): 4.8; Whole endo-lysosomal TPC2 current activated by LyNa-VAs, mean (hTPC2): 4.2

Further lines, with some results ahead:

activation of whole-cell ITPC2-LL/AA (in words) [1] | current density ([1]; 5 µM) | ITPC2 (hTPC2) | EC50 ([1]; read-out: EC50) [µM] | SMILES | current density ([1]; 10 µM) | current density ([1]; 20 µM) | current density ([1]; 50 µM) | current density ([1]; 100 µM) | current density ([1]; 200 µM) | current density ([1]; 400 µM) | other results
 |  | 433 ± 94 pA | 112 ± 1 | CN(C)CCCN1c2ccccc2CCc2ccccc21 [LyNa-VA1.3, Imipramine] | 4.664 pA/pF and 36.5364 pA/pF and 8.182 pA/pF | 6.518 pA/pF and 56.7909 pA/pF and 7.655 pA/pF | 14.1182 pA/pF and 126.618 pA/pF and 15.6182 pA/pF | 42.3 pA/pF and 158.945 pA/pF and 32.4364 pA/pF | 99.9 pA/pF and 167.955 pA/pF and 41.0364 pA/pF | 103.264 pA/pF | 
ITPC2 was evoked | 12.4 pA/pF | 876 ± 196 pA | 102 ± 3 | CN(C)CCC=C1c2ccccc2CCc2ccccc21 [LyNa-VA1.4, Amitriptyline] | 7.736 pA/pF and 9.045 pA/pF and 6.655 pA/pF and 9.464 pA/pF | 11.0727 pA/pF and 11.9545 pA/pF and 11.2909 pA/pF and 11.6545 pA/pF | 26.9364 pA/pF and 36.5091 pA/pF and 23.5818 pA/pF and 26.8545 pA/pF | 95.0727 pA/pF and 115.527 pA/pF and 80.9273 pA/pF and 83.2 pA/pF | 156.364 pA/pF and 155.436 pA/pF and 160.382 pA/pF and 158.109 pA/pF | 179.973 pA/pF | 
ITPC2 was evoked | 7.8 pA/pF | 1101 ± 508 pA | 60 ± 2 | CN(C)CCCN1c2ccccc2Sc2ccc(Cl)cc21 [LyNa-VA2.1, Chlorpromazine] | 11.2294 pA/pF and 9.959 pA/pF and 11.6261 pA/pF and 6.052 pA/pF | 17.6973 pA/pF and 20.0248 pA/pF and 34.5739 pA/pF and 9.104 pA/pF | 54.3211 pA/pF and 69.6612 pA/pF and 69.313 pA/pF and 27.4087 pA/pF | 137.55 pA/pF and 140.785 pA/pF and 150.409 pA/pF and 87.5478 pA/pF | 152.165 pA/pF and 168.074 pA/pF and 117.748 pA/pF |  | effect on whole-endolysosome ITPC1 (in words) (hTPC1): inhibited ITPC1; Dose-dependent inhibition of TPC1 (ITPC1, value at 0 µM = 1) (hTPC1; 3 µM, individual patches): 0.9084 and 0.9958 and 1.027; Dose-dependent inhibition of TPC1 (ITPC1, value at 0 µM = 1) (hTPC1; 3 µM, mean): 0.9772; Dose-dependent inhibition of TPC1 (ITPC1, value at 0 µM = 1) (hTPC1; 10 µM, individual patches): 0.8547 and 1.003 and 0.8763; Dose-dependent inhibition of TPC1 (ITPC1, value at 0 µM = 1) (hTPC1; 10 µM, mean): 0.9114; Dose-dependent inhibition of TPC1 (ITPC1, value at 0 µM = 1) (hTPC1; 30 µM, individual patches): 0.8617 and 0.806 and 0.5194; Dose-dependent inhibition of TPC1 (ITPC1, value at 0 µM = 1) (hTPC1; 30 µM, mean): 0.729; Dose-dependent inhibition of TPC1 (ITPC1, value at 0 µM = 1) (hTPC1; 100 µM, individual patches): 0.4994 and 0.4103 and 0.291; Dose-dependent inhibition of TPC1 (ITPC1, value at 0 µM = 1) (hTPC1; 100 µM, mean): 0.4003; Dose-dependent inhibition of TPC1 (ITPC1, value at 0 µM = 1) (hTPC1; 300 µM, individual patches): 0.197 and 0.08086 and 0.1214; Dose-dependent inhibition of TPC1 (ITPC1, value at 0 µM = 1) (hTPC1; 300 µM, mean): 0.1331; IC50 (hTPC1; whole-endolysosome, n = 3 patches, read-out: IC50, inhibition of TPC1): 77 ± 2 µM
 |  | 984 ± 294 pA | 63 ± 2 | CN(C)CCCN1c2ccccc2Sc2ccc(C(F)(F)F)cc21 [LyNa-VA2.2, Triflupromazine] | 5.827 pA/pF and 3.645 pA/pF and 3 pA/pF | 9.373 pA/pF and 9.136 pA/pF and 3.482 pA/pF | 33.1545 pA/pF and 26.4182 pA/pF and 44.2909 pA/pF | 125.791 pA/pF and 49.7455 pA/pF and 115.618 pA/pF | 155.109 pA/pF and 66.0091 pA/pF and 133.127 pA/pF |  | 
